The test system of the experiment is mice. Kind of experiment: Neuropharmacological Assay (SmartCube): automated behavioral signature of compound-treated mice compared with a database of reference drug classes. It counts as in vivo. The note with it: for MED / minimal effective dose / MED (minimal effective dose): i.p., that dose is shown; for minimal effective dose: Mus musculus, ip. The gist of the method:
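Probabilities of matching each neuropharmacological class (e.g. anxiolytic, antidepressant) come from algorithmic analysis of digitally recorded behaviour, reported for 3.0 mg/kg. Compounds were given intraperitoneally in a Pharmasolve/PEG/propylene glycol vehicle 15 min pre-test. Minimal effective dose is the lowest dose reaching 45% or more total activity.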

[1] abbreviates: SmartCube class probability, 3.0 mg/kg i.p., 15 min before test.
The mark [2] stands for this setting: SmartCube class probability, 3.0 mg/kg i.p., 15 min before test, hydrochloride, 3 mg/kg.
[3] abbreviates: minimal effective dose: dose having 45% or more total activity in SmartCube, if only one dose tested.
Setting [4] is: dose having 45% or more total activity in SmartCube, if only one dose was tested, read-out: MED (minimal effective dose).
Setting [5] is: probability that activity matches this class of agents, 3.0 mg/kg i.p., 15 min before test.
Where [6] appears, read: probability that activity matches this class of agents, 3.0 mg/kg i.p., 15 min before test, hydrochloride, 3 mg/kg.
Setting [7] is: minimal effective dose: dose having 45% or more total activity in SmartCube, if only one dose was tested, read-out: MED.
The mark [8] stands for this setting: SmartCube probability class, 3.0 mg/kg dose, i.p. 15 min before the behavioral test.
Where [9] appears, read: SmartCube probability class, 3.0 mg/kg dose, i.p. 15 min before the behavioral test, hydrochloride, 3 mg/kg.
Setting [10] is: dose having 45% or more total activity in SmartCube, if only one dose was tested, hydrochloride.
Where [11] appears, read: minimal effective dose: dose having 45% or more total activity in SmartCube, if only one dose tested, read-out: MED.

Structures can show the parent of a compound that is named as a salt. Where two headings read alike, the source gives them in different places. Some results are limits rather than exact numbers.

`CCNC1CCc2cscc2C1` (single isomer, unassigned) [Compound 171, N-ethyl-4,5,6,7-tetrahydro-2-benzothiophen-5-amine hydrochloride]: under setting [1], the AD entry was “ND (^ <4%)”, the AG result is reported as “ND (^ <4%)”, the AN result is recorded as “ND (^ <4%)” and the CE entry is given as “ND (^ <4%)”. Under setting [1], the HL entry is “ND (^ <4%)”, the MS result was “ND (^ <4%)”, the PS entry is recorded as “ND (^ <4%)” and the SH entry is reported as “ND (^ <4%)”. Under setting [1], the UK result is listed as “ND (^ <4%)”. For the same compound, under setting [2], the AP result was “++++ (≥74%)” and the AX entry is on record as “ND (^ <4%)”. In addition, the MED (minimal effective dose: dose having 45% or more total activity in SmartCube, if only one dose tested, hydrochloride) worked out at 3 mpk.
Regarding `CNC1CCc2cc(Cl)sc2C1` (single isomer, unassigned) [Compound 146, 2-chloro-N-methyl-4,5,6,7-tetrahydrobenzothiophen-6-amine hydrochloride], under setting [1], the AG entry is reported as “ND (^ <4%)”, the AN result was “ND (^ <4%)”, the AP entry was “ND (^ <4%)” and the AX entry is “ND (^ <4%)”. For the same compound, under setting [1], the CE result is “ND (^ <4%)”, the HL result was “ND (^ <4%)”, the MS result is “ND (^ <4%)” and the PS entry was “ND (^ <4%)”. Under setting [1], the SH entry is given as “ND (^ <4%)”. Also, under setting [2], the AD entry is listed as “ND (^ <4%)” and the UK result is “+++ (≥49%)”. Further, the MED under setting [3] is given as 3 mpk.
On to `CNC1CCc2c(Cl)sc(Cl)c2C1` (single isomer, unassigned) [Compound 59, 1,3-dichloro-N-methyl-4,5,6,7-tetrahydro-2-benzothiophen-5-amine hydrochloride], for which the minimal effective dose under setting [4] was determined as 3 mg/kg. In addition, under setting [5], the AD entry was “ND (^ <4%)”, the AG entry was “ND (^ <4%)”, the AN entry was “ND (^ <4%)” and the CE entry is given as “ND (^ <4%)”. Moreover, under setting [5], the HL result is “ND (^ <4%)”, the MS entry is reported as “ND (^ <4%)”, the PS result is “ND (^ <4%)” and the SH result is “ND (^ <4%)”. For the same compound, the UK result under setting [5] is reported as “ND (^ <4%)”. Moreover, under setting [6], the AP result is reported as “+++ (≥49%)” and the AX result is recorded as “++ (≥24%)”.
On to `Cc1csc2c1OCC(N)C2` (single isomer, unassigned) [Compound 295, 3-methyl-6,7-dihydro-5H-thieno[3,2-b]pyran-6-amine hydrochloride], for which the minimal effective dose under setting [7] was 3 mg/kg. Also, under setting [8], the AD result was “ND (^ <4%)”, the AG entry is listed as “ND (^ <4%)”, the AN result was “ND (^ <4%)” and the AX entry is on record as “ND (^ <4%)”. Moreover, under setting [8], the CE entry is “ND (^ <4%)”, the HL result is reported as “ND (^ <4%)”, the MS entry is recorded as “ND (^ <4%)” and the PS result was “ND (^ <4%)”. Also, the SH entry under setting [8] is on record as “ND (^ <4%)”. Moreover, under setting [9], the AP entry is given as “+++ (≥49%)” and the UK entry is listed as “ND (^ <4%)”.
`CNC1COc2csc(C#N)c2C1` (stereo not drawn) [Compound 139, 3-(methylamino)-3,4-dihydro-2H-thieno[3,4-b]pyran-5-carbonitrile hydrochloride]: the minimal effective dose under setting [4] stood at 0.3 mg/kg. Under setting [5], the AD entry was “++ (≥24%)”, the AG entry is reported as “ND (^ <4%)”, the AN result is “ND (^ <4%)” and the AP result is listed as “ND (^ <4%)”. For the same compound, under setting [5], the AX result was “ND (^ <4%)”, the CE entry is reported as “ND (^ <4%)”, the HL result was “ND (^ <4%)” and the MS entry is “ND (^ <4%)”. Also, under setting [5], the PS entry was “ND (^ <4%)”, the SH result is recorded as “ND (^ <4%)” and the UK entry is “++ (≥24%)”.
Consider `Cc1cc2c(s1)CC(N(C)C)CC2.Cl` (single isomer, unassigned) [Compound 35, N,N, 2-trimethyl-4,5,6,7-tetrahydrobenzothiophen-6-amine hydrochloride], for which, for the setting “dose having 45% or more total activity in SmartCube, if only one dose was tested”, the “MED (minimal effective dose)” value is reported as 10 mpk. Besides, under setting [5], the AD result is recorded as “ND (^ <4%)” and the UK result is reported as “++ (≥24%)”.
On to `Cl.c1scc2c1CCC(NC1CC1)C2` (single isomer, unassigned) [Compound 124, N-cyclopropyl-4,5,6,7-tetrahydro-2-benzothiophen-5-amine hydrochloride], for which the “MED (minimal effective dose)” value under setting [10] was found to be 3 mpk. For the same compound, under setting [5], the AG entry is given as “ND (^ <4%)”, the AN entry is “ND (^ <4%)”, the AP result is recorded as “ND (^ <4%)” and the AX entry is recorded as “ND (^ <4%)”. For the same compound, under setting [5], the CE entry is on record as “ND (^ <4%)”, the HL result is given as “ND (^ <4%)”, the MS entry is reported as “ND (^ <4%)” and the PS result is on record as “ND (^ <4%)”. Further, under setting [5], the SH result is given as “ND (^ <4%)”. In addition, under setting [6], the AD entry was “ND (^ <4%)” and the UK entry is given as “+++ (≥49%)”.
In the case of `CNC1CCc2csc(C#N)c2C1` (single isomer, unassigned) [Compound 133, 6-(methylamino)-4,5,6,7-tetrahydro-2-benzothiophene-1-carbonitrile hydrochloride], the “MED (minimal effective dose)” value under setting [10] is given as <1 mpk. Also, under setting [5], the AG result is recorded as “ND (^ <4%)”, the AN entry is recorded as “ND (^ <4%)”, the AX result is “ND (^ <4%)” and the CE entry was “ND (^ <4%)”. In addition, under setting [5], the HL entry was “ND (^ <4%)”, the MS entry was “ND (^ <4%)”, the PS entry is recorded as “ND (^ <4%)” and the SH entry is reported as “ND (^ <4%)”. Moreover, under setting [6], the AD entry is reported as “+++ (≥49%)”, the AP entry was “+ (≥4%)” and the UK entry is “ND (^ <4%)”.
Regarding `CNC1CCc2scc(C3CCC3)c2C1` (stereo not drawn) [Compound 206, 3-cyclobutyl-N-methyl-4,5,6,7-tetrahydrobenzothiophen-5-amine hydrochloride], the minimal effective dose under setting [11] was determined as 3 mg/kg. For the same compound, under setting [1], the AD result is reported as “ND (^ <4%)”, the AG entry is recorded as “ND (^ <4%)”, the AN entry is reported as “ND (^ <4%)” and the AP entry is listed as “ND (^ <4%)”. In addition, under setting [1], the AX result is reported as “ND (^ <4%)”, the CE result is listed as “ND (^ <4%)”, the HL entry is “ND (^ <4%)” and the MS result is “ND (^ <4%)”. Under setting [1], the PS result is recorded as “ND (^ <4%)”, the SH result is recorded as “ND (^ <4%)” and the UK result is given as “++ (≥24%)”.
As to `CNC1COc2c(C3CC3)csc2C1` (single isomer, unassigned) [Compound 324, 3-cyclopropyl-N-methyl-6,7-dihydro-5H-thieno[3,2-b]pyran-6-amine hydrochloride], under setting [7], the minimal effective dose turned out to be 3 mg/kg. Under setting [8], the AG entry is “ND (^ <4%)”, the AN entry is recorded as “ND (^ <4%)”, the AP result is on record as “ND (^ <4%)” and the AX entry is listed as “ND (^ <4%)”. In addition, under setting [8], the CE entry is “ND (^ <4%)”, the HL result was “ND (^ <4%)”, the MS result is “ND (^ <4%)” and the PS result is recorded as “ND (^ <4%)”. Under setting [8], the SH entry was “ND (^ <4%)”. Besides, under setting [9], the AD entry was “+ (≥4%)” and the UK result was “ND (^ <4%)”.
With `CN(C)C1CCc2cscc2C1.Cl` (single isomer, unassigned) [Compound 157, N,N-dimethyl-4,5,6,7-tetrahydro-2-benzothiophen-5-amine hydrochloride], under setting [1], the AD result was “ND (^ <4%)”, the AG result is “ND (^ <4%)”, the AN entry is reported as “ND (^ <4%)” and the AP entry was “ND (^ <4%)”. Under setting [1], the CE entry is given as “ND (^ <4%)”, the HL result was “ND (^ <4%)”, the MS entry is reported as “ND (^ <4%)” and the PS result is reported as “ND (^ <4%)”. The SH entry under setting [1] is reported as “ND (^ <4%)”. Also, under setting [2], the AX result is reported as “+++ (≥49%)” and the UK result was “ND (^ <4%)”. Also, the MED under setting [3] was 3 mpk.
On to `NC1CCc2sccc2C1` (single isomer, unassigned) [Compound 212, 4,5,6,7-tetrahydrobenzothiophen-5-amine hydrochloride], for which the minimal effective dose under setting [11] was 1 mg/kg. Moreover, under setting [1], the AG entry is given as “ND (^ <4%)”, the AN entry was “ND (^ <4%)”, the AP result is “+ (≥4%)” and the HL result is listed as “ND (^ <4%)”. Under setting [1], the MS entry is recorded as “ND (^ <4%)”, the PS result is “ND (^ <4%)” and the UK entry is “ND (^ <4%)”. Besides, under setting [2], the AD result is listed as “+++ (≥49%)”, the AX entry was “+ (≥4%)”, the CE entry is on record as “+ (≥4%)” and the SH entry is listed as “ND (^ <4%)”.

(Values after patent publication US20260274814A1, “THIENYL COMPOUNDS FOR THE TREATMENT OF A CENTRAL NERVOUS SYSTEM DISEASE OR DISORDER” (Coreterra Therapeutics, Inc., priority 2023, published 2026).)
